# From patent US20260234164A1, “BIPHENYL COMPOUND AS IMMUNOMODULATOR, PREPARATION METHOD THEREFOR AND USE THEREOF” (SHENZHEN CHIPSCREEN BIOSCIENCES CO., LTD., priority 2021, published 2026)
# pEC50: −log10 of the molar value.
# Assays:
# [1] = test system: PD-1/PD-L1-mediated T cell activation inhibitory signal; assay: CHO-PD-L1-CD3L / Jurkat-PD-1-NFAT co-culture luciferase reporter assay; type: cell-based; conditions: Homo sapiens, co-culture 6 h, read-out: EC50 blocking PD-1/PD-L1-mediated T cell activation inhibitory signal
# Description: In order to detect the effect of the interaction between PD-1 and PD-L1 on T cell activation signals in the immune response, CHO-PD-L1-CD3L cells stably expressing human PD-L1 molecules and anti-CD3 single-chain antibody (ScFv) and Jurkat-PD-1-NFAT cells stably expressing human PD-1 molecule and NFAT reporter gene were constructed. When the two kinds of cells were co-incubated, the binding of anti-CD3ScFv on the surface of CHO cells and the membrane CD3 molecules of Jurkat cells would transmit an activation signal to Jurkat cells, but simultaneously, the binding of PD-L1 on the surface of CHO cells and PD-1 molecules on the surface of Jurkat cells would transmit an inhibitory signal inward to prevent expression of the luciferase reporter gene. When immune checkpoint antibodies or small molecule inhibitors were added, the binding of PD-1 and PD-L1 was blocked, the NFAT pathway activated by T cell activation signal mediated by cross-linking of CD3ScFv antibody and CD3 was no longer affected by the inhibitory signal, and the downstream luciferase reporter gene started to be expressed. A chemiluminescent signal proportional to reporter gene activation was detected by adding a catalytic substrate.
# CHO-PD-L1-CD3L cells expressing human PD-L1 molecule and anti-CD3 single-chain antibody (ScFv) and Jurkat-PD-1-NFAT cells stably expressing human PD-1 molecule and NFAT reporter gene were independently constructed and provided by Dr. Chen Bo (KeyMed Bioscience (Chengdu) Co., Ltd.). Puromycin (Cat #540411) and Hygromycin B (Cat #V900372) for stable culture of transfected cells were purchased from Sigma, PMA (Cat #P1585) was purchased from Sigma, anti-human PD-L1 antibody (Cat #GMP-A066) was purchased from Novoprotein Company. Luciferase substrate solution (Cat #E6485) and luciferase-specific cell lysis solution 5× (Cat #E1531) were purchased from Promega. Fluorescence detection instrument Tecan (Spark 10M) was purchased from Switzerland Tecan Company.
# (1) The day before the experiment, 100 μL of CHO-PD-L1-CD3L cells were inoculated in each well of a 96-well cell culture plate (about 4×10^4 cells/well) with a medium of DMEM/F12 containing 10% FBS, 8 μg/mL puromycin and 200 μg/mL hygromycin B, and cultured overnight at 37° C.
# (2) The test compounds were diluted with 0.1% PBST into different concentration gradients, added into 96-well plates, and pre-incubated for 30 min. Jurkat-PD-1-NFAT cell count was adjusted to 2×10^5 cells/mL with the RPMI 1640 complete medium containing 10% FBS, […]8 μg/mL puromycin and 200 μg/mL hygromycin B. 100 ng/mL PMA (the stock solution was prepared with DMSO to a concentration of 10 mg/mL) was added to amplify T cell activation signal. 100 μL of the above Jurkat-PD-1-NFAT cells was added to each well of the 96-well plate for co-culture.
# (3) When detecting the reaction, a control group was provided, including a solvent control without adding test compounds and a positive control with addition of anti-human PD-1 antibody as the experimental system. All detections were performed with duplicates.
# (4) After continuous incubation at 37° C. for 6 h, 40 μL of 5× cell lysate was directly added, and mixed well. The plate was placed at room temperature for 10 min to completely lyse the cells. 50 μL of the lysed cell solution was transferred to a fluorescence detection plate, and added with 30 μL of luciferase substrate solution. The chemiluminescence detection program on the fluorescence detector was immediately selected for detection.
# (5) The inhibition rate of T cell activation signal at the cellular level of the test compounds was calculated as follows: Inhibition rate of T cell activation signal (%)=(the original value of chemiluminescence in the detection well−solvent control)/(the highest original value of chemiluminescence detected in the compound detection well−solvent control)×100%. […]
# [2] = Pharmacokinetic assay after repeated oral administration; type: in vivo, B-hPD-1/hPD-L1 mice; conditions: female, B-hPD-1/hPD-L1, mouse; plasma, 50 mg/kg oral once a day, after administration on the 18th day
# Description: Twenty-four female B-hPD-1/hPD-L1 mice aged 6-8 weeks were purchased from Biocytogen Jiangsu Gene Biotechnology Co., Ltd. The mice were randomly divided into 4 groups, 6 mice in each group. The test compounds were prepared in a vehicle containing 5% DMSO, 60% PEG400 and 35% purified water, including I-1 and 3 control molecules Example 17, Compound 14 (INCB086550), and Example 180. The compounds were administered orally at 50 mg/kg, once a day. The blood was collected alternately through the fundus venous plexus after the administration on the 18th day. The blood collection time points were 15 min, 30 min, 1 h, 2 h, 4 h, 8h, 24 h and 32h. About 0.1 mL of blood was collected in a centrifuge tube (anticoagulated with sodium heparin), and centrifuged at 5000 rpm for 5 min. Then the plasma was separated, and frozen at −20° C. for later detection. After the plasma samples were processed, the concentration of the compounds in the plasma was determined by liquid chromatography-mass spectrometry (LC-MS/MS). The pharmacokinetic parameters were calculated using Phoenix WinNonlin 7.0.
# [3] = Tumor tissue distribution assay in MC38-PD-L1 tumor-bearing mice; type: in vivo, B-hPD-1/hPD-L1 humanized mice; conditions: 50 mg/kg oral once/day
# Description: 16 B-hPD-1/hPD-L1 humanized female mice, aged 6-8 weeks were purchased from Biocytogen Jiangsu Gene Biotechnology Co., Ltd. After 1 week of adaptation, the mice were subcutaneously inoculated with MC38-PD-L1 cells at 2×10^6 cells/site. After the tumor grew to about […], the mice were divided into 4 groups, 4 mice in each group. The test compounds were formulated in a vehicle containing 5% DMSO, 60% PEG400 and 35% purified water, including I-1 and 3 control molecules Example 17, Compound 14 (INCB086550), and Example 180. The compounds were orally administered at 50 mg/kg, once/day. The blood and tumor tissue were collected 4 h and 24 h after administration on the 18th day. A certain amount of tissue was weighed, and added with phosphate-buffered saline (PBS) solution for homogenization. After the sample was processed, it was analyzed by LC-MS/MS to determine the concentration of the compound in plasma and tissue.
smiles,measurement,setting,value
"[2H]C([2H])([2H])OCC12CCC(CCN3CCc4c(nc(C(=O)Nc5cccc(-c6cccc(NC(=O)c7nc8c(n7C)CCN(CCC79CCC(C(=O)O)(CC7)C9)C8)c6Cl)c5Cl)n4C)C3)(CC1)C2 [Compound I-1, 4-(2-(2-((2,2′-dichloro-3′-(5-(2-(4-((methoxy-d3)methyl)bicyclo[2.2.1]heptane-1-yl)ethyl)-1-methyl-4,5,6,7-tetrahydro-1H-imidazo[4,5-c]pyridine-2-carboxamido)-[1,1′-biphenyl]-3-yl)carbamoyl)-1-methyl-1,4,6,7-tetrahydro-5H-imidazo[4,5-c]pyridin-5-yl)ethyl)bicyclo[2.2.1]heptane-1-carboxylic acid]",pEC50,[1],7.86
same,AUC(0-t),[2],123 µg·h/mL
same,MRT,[2],13.5 h
same,half-life,[2],10.3 h
same,Ratio of I-1 to control molecule (tumor tissue concentration),[3]; 4 h after administration on the 18th day,1.0
same,Ratio of I-1 to control molecule (tumor tissue concentration),[3]; 24 h after administration on the 18th day,1.0
same,concentration at 4 h,"[3]; female, B-hPD-1/hPD-L1 humanized, mouse, tumor tissue, 4 h after administration on the 18th day",39200 ng/g
same,concentration at 24 h,"[3]; female, B-hPD-1/hPD-L1 humanized, mouse, tumor tissue, 24 h after administration on the 18th day",27200 ng/g
"[2H]C([2H])([2H])OCC12CCC(CCN3CCc4c(nc(C(=O)Nc5cccc(-c6cccc(NC(=O)c7nc8c(n7C)CCN(CCC79CCC(C(=O)O)(CC7)C9)C8)c6C)c5Cl)n4C)C3)(CC1)C2 [Compound I-3, 4-(2-(2-((2′-chloro-3′-(5-(2-(4-((methoxy-d3)methyl)bicyclo[2.2.1]heptane-1-yl)ethyl)-1-methyl-4,5,6,7-tetrahydro-1H-imidazo[4,5-c]pyridine-2-carboxamido)-2-methyl-[1,1′-biphenyl]-3-yl)carbamoyl)-1-methyl-1,4,6,7-tetrahydro-5H-imidazo[4,5-c]pyridin-5-yl)ethyl)bicyclo[2.2.1]heptane-1-carboxylic acid]",pEC50,[1],7.97
"[2H]C([2H])([2H])OCC12CCC(CCN3CCc4c(nc(C(=O)Nc5cccc(-c6cccc(NC(=O)c7nc8c(n7C)CCN(CCC79CCC(C(=O)O)(CC7)C9)C8)c6Cl)c5C)n4C)C3)(CC1)C2 [Compound I-4, 4-(2-(2-((2-chloro-3′-(5-(2-(4-((methoxy-d3)methyl)bicyclo[2.2.1]heptane-1-yl)ethyl)-1-methyl-4,5,6,7-tetrahydro-1H-imidazo[4,5-c]pyridine-2-carboxamido)-2′-methyl-[1,1′-biphenyl]-3-yl)carbamoyl)-1-methyl-1,4,6,7-tetrahydro-5H-imidazo[4,5-c]pyridin-5-yl)ethyl)bicyclo[2.2.1]heptane-1-carboxylic acid]",pEC50,[1],8.01
"[2H]C([2H])([2H])n1c(C(=O)Nc2cccc(-c3cccc(NC(=O)c4nc5c(n4C([2H])([2H])[2H])CCN(CCC46CCC(C(=O)O)(CC4)C6)C5)c3Cl)c2F)nc2c1CCN(CCC13CCC(COC)(CC1)C3)C2 (single isomer, unassigned) [Compound I-8, 4-(2-(2-((2-chloro-2′-fluoro-3′-(5-(2-(4-(methoxymethyl)bicyclo[2.2.1]heptane-1-yl)ethyl)-1-(methyl-d3)-4,5,6,7-tetrahydro-1H-imidazo[4,5-c]pyridine-2-carboxamido)-[1,1′-biphenyl]-3-yl)carbamoyl)-1-(methyl-d3)-1,4,6,7-tetrahydro-5H-imidazo[4,5-c]pyridin-5-yl)ethyl)bicyclo[2.2.1]heptane-1-carboxylic acid]",pEC50,[1],7.35
